In EP4603105A1, “PHARMACEUTICAL COMPOSITION CONTAINING CYCLIC COMPOUND HAVING SELECTIVE KRAS INHIBITORY EFFECT AGAINST HRAS AND NRAS” (CHUGAI SEIYAKU KABUSHIKI KAISHA, priority 2022, dated 2024):
*1 amine or outer side, *2 acyl side, *3 side chain or, on linkers, in order; H or OH if unused. Where a SMILES comes first, the peptide text is derived from it. Bridges are numbered along the chain shown (N, C = ends). [ ]: non-standard residue; d: D form. The star is where a group is joined. hPhe(3-Cl-4-CF3) = N[C@@H](CCc1ccc(C(F)(F)F)c(Cl)c1)C(=O)O; NPrPhe(4-CF3) = CCCN[C@@H](Cc1ccc(C(F)(F)F)cc1)C(=O)O; X50 = C=CCN([C@@H](Cc1ccc(C)cc1)C(=O)[*:2])[*:1]; NMeGly(cPent) = CN[C@H](C(=O)O)C1CCCC1; Pro(4,4-F2) = O=C(O)[C@@H]1CC(F)(F)CN1; NMeAllylGly = C=CC[C@H](NC)C(=O)O; Hyp = O=C(O)[C@@H]1C[C@@H](O)CN1; NMeD = CN[C@@H](CC(=O)O)C(=O)O; NMeL = CN[C@@H](CC(C)C)C(=O)O; Morpholide = C1CN(*)CCO1; Ac5c = NC1(C(=O)O)CCCC1; Aze = O=C(O)[C@@H]1CCN1; Sar = CNCC(=O)O

Experiments:
HRAS wild-type protein = HRAS wild-type protein (Homo sapiens, UniProt P01112); experiment: Binding to HRAS by surface plasmon resonance (SPR), KD and KD ratio to KRAS
Procedure, shortened: (§1)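 Each cycle, GDP-bound biotin-Avi RAS was captured (~100–300 RU), compound concentrations were injected low to high for 75 s each at 100 µL/min, then the chip was regenerated. Buffer: HBS pH 7.4, 10 mM MgCl2, 10 µM GDP, 1 mM DTT, 4% DMSO; 30°C. KD from a 1:1 binding model.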

[1] = system: human lung cancer strain NCI-H441; type: cell-based
Procedure, shortened: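 Signal came from […] measured per well once the reagent was added. Beforehand, cells were cultured at 37°C and 5% carbon dioxide on a compound series serially diluted in dimethyl sulfoxide.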

[2] = target: GDP-bound NRAS wild-type protein (Homo sapiens, UniProt P01111); experiment: Binding to NRAS by surface plasmon resonance (SPR), KD and KD ratio to KRAS
Procedure, shortened: as §1

[3] = ratio of KD for HRAS wild-type protein to KD for KRAS
[4] = ratio of KD for GDP-bound NRAS wild-type protein to KD for KRAS
[5] = ratio of KD value for HRAS wild-type protein to KD value for KRAS (SPR)
[6] = ratio of KD value for GDP-bound NRAS wild-type protein to KD value for KRAS (SPR)
[7] = ratio of the KD value with respect to HRAS wild-type protein to the KD value with respect to KRAS
[8] = ratio of the KD value with respect to GDP-bound NRAS wild-type protein to the KD value with respect to KRAS

Sequence of GDP-bound NRAS wild-type protein (P01111 whole entry): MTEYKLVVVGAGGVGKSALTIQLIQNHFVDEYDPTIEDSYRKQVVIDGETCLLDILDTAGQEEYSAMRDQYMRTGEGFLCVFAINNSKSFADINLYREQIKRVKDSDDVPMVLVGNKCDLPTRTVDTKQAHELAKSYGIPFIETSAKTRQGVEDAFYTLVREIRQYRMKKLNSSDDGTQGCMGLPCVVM
Sequence of HRAS wild-type protein (P01112 whole entry): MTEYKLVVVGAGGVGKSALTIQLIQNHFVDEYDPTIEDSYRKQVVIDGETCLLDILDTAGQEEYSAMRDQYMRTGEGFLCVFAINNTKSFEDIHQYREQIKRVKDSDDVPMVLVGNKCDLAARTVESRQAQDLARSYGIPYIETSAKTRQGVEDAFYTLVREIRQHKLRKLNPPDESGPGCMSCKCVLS

Structure (SMILES)	IC50 [1] [nM]	HRAS /KRAS (HRAS wild-type protein; [3])	NRAS /KRAS [2, 4]	HRAS /KRAS (HRAS wild-type protein; [5])	NRAS /KRAS [2, 6]	HRAS /KRAS (HRAS wild-type protein; [7])	NRAS /KRAS [2, 8]
CCO[C@@H]1C[C@H]2C(=O)NC3(CCC3)C(=O)N(C)[C@@H](C3CCCC3)C(=O)N(C)[C@H](C(=O)N(C)C)CC(=O)N(C)[C@@H](CC3CCCCC3)C(=O)N[C@@H]([C@@H](C)CC)C(=O)N(C)CC(=O)N(C)[C@H]3C/C=C\CCN(C3=O)[C@@H](Cc3ccc(C(F)(F)F)cc3)C(=O)N(C)CC(=O)N[C@@H](CCc3cc(F)c(C(F)(F)F)c(F)c3)C(=O)N2C1 [PP1125]	15	A (a compound having 10 or more and less than 20 is denoted as A)	A (a compound having 10 or more and less than 20 is denoted as A)	–	–	–	–
CC[C@H](C)[C@@H]1NC(=O)[C@H](CC2CCCC2)N(C)C(=O)C[C@@H](C(=O)N(C)C)N(C)C(=O)[C@H](C2CCCC2)N(C)C(=O)C2(CCC2)NC(=O)[C@@H]2C[C@@H](F)CN2C(=O)[C@H](CCc2cc(F)c(C(F)(F)F)c(F)c2)NC(=O)CN(C)C(=O)[C@H](Cc2ccc(C(F)(F)F)cc2)N2CC/C=C\C[C@@H](C2=O)N(C)C(=O)CN(C)C1=O [PP1502]	2	–	–	A (a compound having 10 or more and less than 20 is denoted as A)	A (a compound having 10 or more and less than 20 is denoted as A)	–	–
C=CCCCC[C@H]1C(=O)N[C@@H]([C@@H](C)CC)C(=O)N(C)CC(=O)N(C)[C@H]2CCCCN(C2=O)[C@@H](Cc2ccc(C(F)(F)F)cc2)C(=O)N(C)CC(=O)N[C@@H](CCc2cc(F)c(C(F)(F)F)c(F)c2)C(=O)N2C[C@H](OCC)C[C@H]2C(=O)N[C@](C)(CC=C)C(=O)N(C)[C@@H](C2CCCC2)C(=O)N(C)[C@H](C(=O)N2CCOCC2)CC(=O)N1C [PP0877]	18.8	B (a compound having 3 or more and less than 10 is denoted as B)	C (A compound having a KD ratio of 0.1 or more and less than 3 is denoted as C)	–	–	–	–
C=CCN1C(=O)CN(C)C(=O)CN(C)C(=O)[C@H]([C@@H](C)CC)NC(=O)[C@H](CC(C)C)N(C)C(=O)C[C@@H](C(=O)N2CCOCC2)N(C)C(=O)[C@H](C2CCCC2)N(C)C(=O)C2(CCCC2)NC(=O)[C@@H]2CCCN2C(=O)[C@H](CCc2ccc(C(F)(F)F)c(Cl)c2)NC(=O)CN(C)C(=O)[C@@H]1Cc1ccc(C)cc1 [PP0100] ([NMeL]I[Sar][Sar][X50][Sar][hPhe(3-Cl-4-CF3)]P[Ac5c][NMeGly(cPent)][NMeD]-Morpholide; lactam N-11)	24.3	C (A compound having a KD ratio of 0.1 or more and less than 3 is denoted as C)	B (a compound having 3 or more and less than 10 is denoted as B)	–	–	–	–
CC[C@H](C)[C@@H]1NC(=O)[C@H](COC)N(C)C(=O)C[C@@H](C(=O)N2CCOCC2)N(C)C(=O)[C@H](C2CCCC2)N(C)C(=O)C2(CCCC2)NC(=O)[C@@H]2CCCN2C(=O)[C@H](CCc2cc(F)c(C(F)(F)F)c(F)c2)NC(=O)CN(C)C(=O)[C@H](Cc2ccc(C(F)(F)F)cc2)N2CCCCC[C@@H](C2=O)N(C)C(=O)CN(C)C1=O [PP0845]	135	B (a compound having 3 or more and less than 10 is denoted as B)	B (a compound having 3 or more and less than 10 is denoted as B)	–	–	–	–
CCCN1C(=O)CN(C)C(=O)CNC(=O)[C@H]([C@@H](C)CC)NC(=O)[C@H](CC(C)C)N(C)C(=O)C[C@@H](C(=O)N(C)C)N(C)C(=O)[C@H](C2CCCC2)N(C)C(=O)C2(CCCC2)NC(=O)[C@@H]2CC(F)(F)CN2C(=O)[C@H](CCc2ccc(C(F)(F)F)c(Cl)c2)NC(=O)CN(C)C(=O)[C@@H]1Cc1ccc(C(F)(F)F)cc1 [PP0419] ([NMeL]IG[Sar][NPrPhe(4-CF3)][Sar][hPhe(3-Cl-4-CF3)][Pro(4,4-F2)][Ac5c][NMeGly(cPent)][NMeD]-NMe2; lactam N-11)	4.2	–	–	–	–	C (A compound having a KD ratio of 0.1 or more and less than 3 is denoted as C)	B (a compound having 3 or more and less than 10 is denoted as B)
CC[C@H](C)[C@@H]1NC(=O)[C@H](COC)N(C)C(=O)C[C@@H](C(=O)N2CCOCC2)N(C)C(=O)[C@H](C2CCCC2)N(C)C(=O)C2(CCC2)NC(=O)[C@@H]2CC(F)(F)CN2C(=O)[C@H](CCc2cc(F)c(C(F)(F)F)c(F)c2)NC(=O)CN(C)C(=O)[C@H](Cc2ccc(C(F)(F)F)cc2)N2CCCCC[C@@H](C2=O)N(C)C(=O)CNC1=O [PP0861]	20.7	B (a compound having 3 or more and less than 10 is denoted as B)	B (a compound having 3 or more and less than 10 is denoted as B)	–	–	–	–
CCO[C@@H]1C[C@H]2C(=O)NC3(CCC3)C(=O)N(C)[C@@H](C3CCCC3)C(=O)N(C)[C@H](C(=O)N(C)C)CC(=O)N(C)[C@@H](CC)C(=O)N[C@@H]([C@@H](C)CC)C(=O)N3CC[C@H]3C(=O)N(C)[C@H]3CC(C)=CCN(C3=O)[C@@H](Cc3ccc(C(F)(F)F)cc3)C(=O)N(C)CC(=O)N[C@@H](CCc3cc(F)c(C(F)(F)F)c(F)c3)C(=O)N2C1 [PP1035]	128	C (A compound having a KD ratio of 0.1 or more and less than 3 is denoted as C)	C (A compound having a KD ratio of 0.1 or more and less than 3 is denoted as C)	–	–	–	–
CCCN1C(=O)[C@@H]2CCN2C(=O)CN(C)C(=O)[C@H]([C@@H](C)CC)NC(=O)[C@H](CC(C)C)N(C)C(=O)C[C@@H](C(=O)N2CCOCC2)N(C)C(=O)[C@H](C2CCCC2)N(C)C(=O)C2(CCCC2)NC(=O)[C@@H]2C[C@@H](OCC)CN2C(=O)[C@H](CCc2ccc(C(F)(F)F)c(Cl)c2)NC(=O)CN(C)C(=O)[C@@H]1Cc1ccc(C(F)(F)F)cc1 [PP0410] ([NMeL]I[Sar][Aze][NPrPhe(4-CF3)][Sar][hPhe(3-Cl-4-CF3)][Hyp](Et)[Ac5c][NMeGly(cPent)][NMeD]-Morpholide; lactam N-11)	1.4	–	–	–	–	B (a compound having 3 or more and less than 10 is denoted as B)	C (A compound having a KD ratio of 0.1 or more and less than 3 is denoted as C)
C=CC[C@H]1C(=O)N(CC=C)[C@@H](Cc2ccc(C)cc2)C(=O)N(C)CC(=O)N[C@@H](CCc2ccc(C(F)(F)F)c(Cl)c2)C(=O)N2CCC[C@H]2C(=O)NC2(CCCC2)C(=O)N(C)[C@@H](C2CCCC2)C(=O)N(C)[C@H](C(=O)N2CCOCC2)CC(=O)N(C)[C@@H](CC(C)C)C(=O)N[C@@H]([C@@H](C)CC)C(=O)N(C)CC(=O)N1C [PP0139] ([NMeL]I[Sar][NMeAllylGly][X50][Sar][hPhe(3-Cl-4-CF3)]P[Ac5c][NMeGly(cPent)][NMeD]-Morpholide; lactam N-11)	1500	C (A compound having a KD ratio of 0.1 or more and less than 3 is denoted as C)	C (A compound having a KD ratio of 0.1 or more and less than 3 is denoted as C)	–	–	–	–

Further lines, with some results ahead:

IC50 [1] [nM]	Structure (SMILES)	HRAS /KRAS (HRAS wild-type protein; [3])	NRAS /KRAS [2, 4]	HRAS /KRAS (HRAS wild-type protein; [5])	NRAS /KRAS [2, 6]	HRAS /KRAS (HRAS wild-type protein; [7])	NRAS /KRAS [2, 8]
9.9	CC[C@H](C)[C@@H]1NC(=O)[C@H](CC)N(C)C(=O)C[C@@H](C(=O)N(C)CC)N(C)C(=O)[C@H](C2CCCC2)N(C)C(=O)C2(CC(C)(C)C2)NC(=O)[C@@H]2C[C@H](C)CN2C(=O)[C@H](CCc2ccc(C(F)(F)F)c(Cl)c2)NC(=O)CN(C)C(=O)[C@H](Cc2ccc(C)cc2)N2CC/C=C\C[C@@H](C2=O)N(C)C(=O)CN(C)C1=O [PP1874]	–	–	A (a compound having 10 or more and less than 20 is denoted as A)	A (a compound having 10 or more and less than 20 is denoted as A)	–	–
132	CCO[C@@H]1C[C@H]2C(=O)NC3(CC(C)(C)C3)C(=O)N(C)[C@@H](C3CCCC3)C(=O)N(C)[C@H](C(C)C)CC(=O)N(C)[C@@H](CC)C(=O)N[C@@H]([C@@H](C)CC)C(=O)N(C)CC(=O)N(C)[C@H]3C/C=C\CCN(C3=O)[C@@H](CC3CCCCC3)C(=O)N(C)CC(=O)N[C@@H](CCc3cc(F)c(C(F)(F)F)c(F)c3)C(=O)N2C1 [PP1603]	–	–	B (a compound having 3 or more and less than 10 is denoted as B)	B (a compound having 3 or more and less than 10 is denoted as B)	–	–
13.4	CCO[C@@H]1C[C@H]2C(=O)NC3(CCC3)C(=O)N(C)[C@@H](C3CCCC3)C(=O)N(C)[C@H](C(=O)N(C)C)CC(=O)N(C)[C@@H](CC(C)C)C(=O)N[C@@H]([C@@H](C)CC)C(=O)N(C)CC(=O)N(C)[C@H]3C/C=C\CCN(C3=O)[C@@H](Cc3ccc(F)cc3C)C(=O)N(C)CC(=O)N[C@@H](CCc3cc(F)c(C(F)(F)F)c(F)c3)C(=O)N2C1 [PP1532]	–	–	B (a compound having 3 or more and less than 10 is denoted as B)	A (a compound having 10 or more and less than 20 is denoted as A)	–	–
8.1	CCC[C@H]1C(=O)N[C@@H]([C@@H](C)CC)C(=O)N(C)CC(=O)N(C)[C@H]2C/C=C\CCN(C2=O)[C@@H](Cc2ccc(C(F)(F)F)cc2)C(=O)N(C)CC(=O)N[C@@H](CCc2ccc(C(F)(F)F)c(Cl)c2)C(=O)N2C[C@H](OCC)C[C@H]2C(=O)NC2(CC(C)(C)C2)C(=O)N(C)[C@@H](CC(C)C)C(=O)N(C)[C@H](C(=O)N(C)C)CC(=O)N1C [PP2977]	A (a compound having 10 or more and less than 20 is denoted as A)	A (a compound having 10 or more and less than 20 is denoted as A)	–	–	–	–
25.8	CCC[C@H]1C(=O)N[C@@H](C(CC)CC)C(=O)N(C)CC(=O)N(C)[C@H]2C/C=C\CCN(C2=O)[C@@H](Cc2ccc(C)cc2)C(=O)N(C)CC(=O)N[C@@H](CCc2ccc(C(F)(F)F)c(Cl)c2)C(=O)N2C[C@H](OCC)C[C@H]2C(=O)NC2(CC(C)(C)C2)C(=O)N(C)[C@@H](CC(C)(C)C)C(=O)N(C)[C@H](C(=O)N(C)C)CC(=O)N1C [PP2207]	–	–	–	–	A (a compound having 10 or more and less than 20 is denoted as A)	A (a compound having 10 or more and less than 20 is denoted as A)
